Inconclusive results and toxic doses are left out. Cut-off read from the data, not from the text of the source: active = T/C of 150% or more; inactive = T/C below 125%.
System: L1210 leukemia ip in BDF1 mice, survival T/C
Assay: NCI In Vivo Anticancer Drug Screen. Data for tumor model L1210 Leukemia (intraperitoneal) in B6D2F1 (BDF1) mice
Conditions: endpoint: mean survival time, higher = longer survival
Procedure, shortened: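 Each compound was tested against a transplantable tumor grown in mice. The endpoint was survival, with treated animals benchmarked against vehicle controls as a simple ratio.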

[1] = dose: 100.0 mg/kg/injection, schedule: Q04DX003 (ip), vehicle: saline with Tween-80
[2] = dose: 200.0 mg/kg/injection, schedule: Q04DX003 (ip), vehicle: saline with Tween-80
[3] = dose: 400.0 mg/kg/injection, schedule: Q04DX003 (ip), vehicle: saline with Tween-80
[4] = dose: 75.0 mg/kg/injection, schedule: Q01DX001 (ip), vehicle: saline
[5] = dose: 150.0 mg/kg/injection, schedule: Q01DX001 (ip), vehicle: saline
[6] = dose: 50.0 mg/kg/injection, schedule: Q01DX009 (ip), vehicle: saline with Tween-80
[7] = dose: 100.0 mg/kg/injection, schedule: Q01DX001 (ip), vehicle: carboxymethylcellulose (CMC)
[8] = dose: 200.0 mg/kg/injection, schedule: Q01DX001 (ip), vehicle: carboxymethylcellulose (CMC)
[9] = dose: 400.0 mg/kg/injection, schedule: Q01DX001 (ip), vehicle: carboxymethylcellulose (CMC)
[10] = dose: 100.0 mg/kg/injection, schedule: Q01DX009 (ip), vehicle: Klucel (hydroxypropylcellulose) (HPC)
[11] = dose: 100.0 mg/kg/injection, schedule: Q04DX003 (ip), vehicle: Klucel (hydroxypropylcellulose) (HPC)
[12] = dose: 200.0 mg/kg/injection, schedule: Q04DX003 (ip), vehicle: Klucel (hydroxypropylcellulose) (HPC)
[13] = dose: 400.0 mg/kg/injection, schedule: Q04DX003 (ip), vehicle: Klucel (hydroxypropylcellulose) (HPC)
[14] = dose: 100.0 mg/kg/injection, schedule: Q01DX001 (ip), vehicle: saline
[15] = dose: 200.0 mg/kg/injection, schedule: Q01DX001 (ip), vehicle: saline
[16] = dose: 400.0 mg/kg/injection, schedule: Q01DX001 (ip), vehicle: saline
[17] = dose: 50.0 mg/kg/injection, schedule: Q04DX003 (ip), vehicle: Klucel (hydroxypropylcellulose) (HPC)

Measured: T/C

CCOC(CCC#N)c1ccccc1 (stereo unspecified)
inactive: [1] 95 % of control | dose: 125.0 mg/kg/injection, schedule: Q01DX009 (ip), vehicle: saline with Tween-80 113 % of control | [2] 98 % of control | dose: 235.0 mg/kg/injection, schedule: Q01DX009 (ip), vehicle: saline with Tween-80 96 % of control | [3] 92 % of control

CN1CCC(SC(=O)C(O)(c2ccccc2)c2ccccc2)CC1
inactive: [4] 94 % of control | [5] 95 % of control

CCOC(=O)c1cc(Br)cc(Br)c1N/N=[N+](\C)[O-]
inactive: [6] 105 % of control | dose: 100.0 mg/kg/injection, schedule: Q01DX009 (ip), vehicle: saline with Tween-80 98 % of control | dose: 200.0 mg/kg/injection, schedule: Q01DX009 (ip), vehicle: saline with Tween-80 110 % of control

CC(=O)c1c(C)[nH]c2ccccc12
inactive: dose: 100.0 mg/kg/injection, schedule: Q01DX001 (ip), vehicle: saline with Tween-80 101 % of control | [1] 95 % of control | dose: 200.0 mg/kg/injection, schedule: Q01DX001 (ip), vehicle: saline with Tween-80 103 % of control | [2] 95 % of control | dose: 400.0 mg/kg/injection, schedule: Q01DX001 (ip), vehicle: saline with Tween-80 97 % of control | [3] 95 % of control

C[CH2][Sn]([c]1ccccc1)([c]1ccccc1)[c]1ccccc1
inactive: dose: 12.5 mg/kg/injection, schedule: Q01DX009 (ip), vehicle: saline with Tween-80 97 % of control | dose: 25.0 mg/kg/injection, schedule: Q01DX009 (ip), vehicle: saline with Tween-80 99 % of control | [6] 99 % of control

CC(=O)Nc1c(I)cc2c(c1I)Cc1cc([N+](=O)[O-])ccc1-2
inactive: [7] 98 % of control | [8] 104 % of control | [9] 93 % of control

O=C(CSc1cc(Cl)c(Cl)cc1Cl)Nc1cccc(Br)c1
inactive: dose: 50.0 mg/kg/injection, schedule: Q04DX003 (ip), vehicle: saline with Tween-80 94 % of control | [1] 87 % of control | [2] 96 % of control

c1cc(C2CO2)ccc1Oc1ccc(C2CO2)cc1 (stereo unspecified)
inactive: dose: 1.0 mg/kg/injection, schedule: Q01DX Z (ip), vehicle: methylcellulose (MC) 96 % of control | dose: 3.3 mg/kg/injection, schedule: Q01DX Z (ip), vehicle: methylcellulose (MC) 98 % of control | dose: 10.0 mg/kg/injection, schedule: Q01DX Z (ip), vehicle: methylcellulose (MC) 104 % of control | dose: 33.0 mg/kg/injection, schedule: Q01DX Z (ip), vehicle: methylcellulose (MC) 98 % of control | dose: 100.0 mg/kg/injection, schedule: Q01DX Z (ip), vehicle: methylcellulose (MC) 86 % of control

BrC(Br)c1ccc2ccccc2n1
inactive: [10] 89 % of control | [11] 95 % of control | dose: 200.0 mg/kg/injection, schedule: Q01DX009 (ip), vehicle: Klucel (hydroxypropylcellulose) (HPC) 94 % of control | [12] 95 % of control | dose: 400.0 mg/kg/injection, schedule: Q01DX009 (ip), vehicle: Klucel (hydroxypropylcellulose) (HPC) 94 % of control | [13] 97 % of control

O=C(Nc1ccc(Cl)cc1)c1ccc([N+](=O)[O-])cc1
inactive: dose: 100.0 mg/kg/injection, schedule: Q04DX002 (ip), vehicle: gum acacia 106 % of control | dose: 200.0 mg/kg/injection, schedule: Q04DX002 (ip), vehicle: gum acacia 102 % of control | dose: 400.0 mg/kg/injection, schedule: Q04DX002 (ip), vehicle: gum acacia 98 % of control

O=C1C=C(C2CCCCC2)C(=O)C2CCCCC12 (stereo unspecified)
inactive: dose: 100.0 mg/kg/injection, schedule: Q01DX001 (ip), vehicle: Klucel (hydroxypropylcellulose) (HPC) 107 % of control | dose: 100.0 mg/kg/injection, schedule: Q01DX009 (ip), vehicle: saline 92 % of control | dose: 200.0 mg/kg/injection, schedule: Q01DX001 (ip), vehicle: Klucel (hydroxypropylcellulose) (HPC) 105 % of control | dose: 200.0 mg/kg/injection, schedule: Q01DX009 (ip), vehicle: saline 91 % of control | dose: 400.0 mg/kg/injection, schedule: Q01DX001 (ip), vehicle: Klucel (hydroxypropylcellulose) (HPC) 114 % of control | dose: 400.0 mg/kg/injection, schedule: Q01DX009 (ip), vehicle: saline 86 % of control

O=C(Nc1ccccc1)Nc1nccs1
inactive: [14] 102 % of control | [11] 105 % of control | [15] 106 % of control | [12] 100 % of control | [16] 101 % of control

c1ccc(CSC(Cc2ccccc2)(SCc2ccccc2)c2ccccc2)cc1
inactive: dose: 50.0 mg/kg/injection, schedule: Q01DX001 (ip), vehicle: saline 102 % of control | [14] 104 % of control | [15] 98 % of control | [16] 104 % of control

Nc1ccc(S(=O)(=O)Nc2ccc(Nc3c4ccccc4nc4ccccc34)cc2)cc1
inactive: dose: 3.0 mg/kg/injection, schedule: Q01DX009 (ip), vehicle: saline with Tween-80 122 % of control | dose: 6.0 mg/kg/injection, schedule: Q01DX009 (ip), vehicle: saline with Tween-80 120 % of control

NC(CCCc1ccccc1)C(=O)O (stereo unspecified)
inactive: [17] 98 % of control | [11] 96 % of control | [12] 88 % of control | [13] 94 % of control

CCC(=O)c1ccc(N2CCOCC2)cc1
inactive: [17] 97 % of control | dose: 100.0 mg/kg/injection, schedule: Q01DX001 (ip), vehicle: other 107 % of control | [11] 101 % of control | dose: 200.0 mg/kg/injection, schedule: Q01DX001 (ip), vehicle: other 107 % of control | [12] 108 % of control | dose: 400.0 mg/kg/injection, schedule: Q01DX001 (ip), vehicle: other 107 % of control

CCCCCCCCCCCCOCCC(=O)O
inactive: [4] 100 % of control | [5] 94 % of control | dose: 300.0 mg/kg/injection, schedule: Q01DX001 (ip), vehicle: saline 94 % of control

O=c1c(Br)c[nH]cc1Br
inactive: dose: 12.5 mg/kg/injection, schedule: Q01DX009 (ip), vehicle: Klucel (hydroxypropylcellulose) (HPC) 91 % of control | dose: 25.0 mg/kg/injection, schedule: Q01DX009 (ip), vehicle: Klucel (hydroxypropylcellulose) (HPC) 111 % of control | dose: 50.0 mg/kg/injection, schedule: Q01DX009 (ip), vehicle: Klucel (hydroxypropylcellulose) (HPC) 91 % of control | [10] 98 % of control

O=C(NP(=O)(N1CC1)N1CC1)OCCCCCCOC(=O)NP(=O)(N1CC1)N1CC1
inactive: [7] 101 % of control | [8] 113 % of control | [9] 108 % of control
